Source: publication PMC2248166, “Quantitative peptide binding motifs for 19 human and mouse MHC class I molecules derived using positional scanning combinatorial peptide libraries” (Immunome Research, 2008)
Where a SMILES comes first, the peptide text is derived from it.

Target: HLA B*1503 (Homo sapiens, UniProt P01889, A329T/A93T/A95T/C349S/D201E/D98Y/E187L/E204Q/K202T/N87E/Q94N/R155S/R180L/S121R/S35A/V306I/V36M/Y140S/Y91S)
Assay: biochemical
Assay type: binding

Structure (SMILES) | IC50 [nM]
CC[C@H](C)[C@H](NC(=O)[C@H](CCSC)NC(=O)[C@H](C)NC(=O)[C@H](C)NC(=O)[C@@H](N)Cc1ccccc1)C(=O)N[C@H](C(=O)N[C@@H](CCCNC(=N)N)C(=O)N[C@@H](CO)C(=O)N[C@@H](Cc1ccccc1)C(=O)O)[C@@H](C)CC [3102.1048] (H-FAAMIIRSF-OH) | 1.3
CSCC[C@H](NC(=O)[C@H](CC(C)C)NC(=O)[C@H](CO)NC(=O)[C@H](CC(N)=O)NC(=O)[C@H](CC(N)=O)NC(=O)[C@H](CC(C)C)NC(=O)[C@@H](N)CS)C(=O)N[C@@H](CO)C(=O)N[C@@H](Cc1ccccc1)C(=O)O [3102.1050] (H-CLNNSLMSF-OH) | 0.77
CC(C)C[C@H](NC(=O)[C@H](CO)NC(=O)[C@H](CO)NC(=O)[C@@H](NC(=O)[C@H](CCC(=O)O)NC(=O)[C@@H](NC(=O)[C@H](CO)NC(=O)[C@H](CCCCN)NC(=O)[C@@H](N)CC(C)C)C(C)C)[C@@H](C)O)C(=O)O [3102.1056] (H-LKSVETSSL-OH) | 3.8
CC(C)C[C@H](NC(=O)[C@@H](N)CC(N)=O)C(=O)N[C@@H](Cc1ccc(O)cc1)C(=O)N[C@@H](Cc1ccccc1)C(=O)N[C@@H](CS)C(=O)N[C@H](C(=O)N[C@@H](CCCCN)C(=O)N[C@@H](CO)C(=O)N[C@@H](Cc1ccccc1)C(=O)O)[C@@H](C)O [3102.1057] (H-NLYFCTKSF-OH) | 4.3
CC[C@H](C)[C@H](NC(=O)[C@@H](NC(=O)[C@@H](NC(=O)[C@H](CCCNC(=N)N)NC(=O)[C@H](CC(N)=O)NC(=O)[C@H](Cc1ccccc1)NC(=O)[C@H](CO)NC(=O)[C@@H](N)C(C)C)C(C)C)C(C)C)C(=O)N[C@@H](Cc1ccccc1)C(=O)O [3102.1059] (H-VSFNRVVIF-OH) | 1.1
CC(C)C[C@H](NC(=O)[C@H](CC(N)=O)NC(=O)[C@H](CC(C)C)NC(=O)[C@H](CCCNC(=N)N)NC(=O)[C@H](CCCNC(=N)N)NC(=O)[C@H](CO)NC(=O)[C@H](CCCCN)NC(=O)[C@@H](N)CO)C(=O)N[C@@H](Cc1ccccc1)C(=O)O [3102.1061] (H-SKSRRLNLF-OH) | 2.4
CC(C)[C@H](NC(=O)[C@H](CC(=O)O)NC(=O)[C@H](CCC(=O)O)NC(=O)[C@@H](NC(=O)[C@H](CO)NC(=O)[C@@H](N)CCCCN)C(C)C)C(=O)N[C@@H](CO)C(=O)N[C@@H](C)C(=O)N[C@@H](Cc1ccccc1)C(=O)O [3102.1062] (H-KSVEDVSAF-OH) | 14
CC[C@H](C)[C@H](N)C(=O)N[C@@H](CCSC)C(=O)N[C@@H](CO)C(=O)N[C@@H](CC(C)C)C(=O)N[C@@H](Cc1ccccc1)C(=O)N[C@@H](CO)C(=O)N[C@H](C(=O)N[C@@H](CO)C(=O)N[C@@H](C)C(=O)O)[C@@H](C)O [3102.1063] (H-IMSLFSTSA-OH) | 7.7
CC[C@H](C)[C@H](N)C(=O)N[C@@H](CO)C(=O)N[C@@H](CO)C(=O)N[C@@H](CCCNC(=N)N)C(=O)N[C@@H](CCC(=O)O)C(=O)N[C@@H](CO)C(=O)N[C@H](C(=O)N[C@@H](CO)C(=O)N[C@@H](Cc1ccccc1)C(=O)O)C(C)C [3102.1068] (H-ISSRESVSF-OH) | 12
CC[C@H](C)[C@H](NC(=O)[C@@H]1CCCN1C(=O)[C@H](CO)NC(=O)CNC(=O)[C@H](CC(=O)O)NC(=O)[C@H](CC(C)C)NC(=O)[C@@H](NC(=O)[C@H](CCCCN)NC(=O)[C@@H](N)Cc1ccccc1)C(C)C)C(=O)O [3102.1070] (H-FKVLDGSPI-OH) | 0.82
CC[C@H](C)[C@H](NC(=O)[C@H](CC(N)=O)NC(=O)[C@@H](NC(=O)[C@H](CCCCN)NC(=O)[C@@H](N)Cc1ccccc1)[C@@H](C)CC)C(=O)N[C@@H](Cc1ccccc1)C(=O)N[C@@H](CCSC)C(=O)N[C@@H](C)C(=O)N[C@@H](Cc1ccccc1)C(=O)O [3102.1074] (H-FKINIFMAF-OH) | 10
CC[C@H](C)[C@H](NC(=O)[C@H](CC(N)=O)NC(=O)[C@H](Cc1c[nH]cn1)NC(=O)[C@H](CCC(N)=O)NC(=O)[C@@H](N)C(C)C)C(=O)N[C@@H](CCCCN)C(=O)N[C@@H](Cc1c[nH]cn1)C(=O)N[C@@H](CO)C(=O)N[C@@H](Cc1ccccc1)C(=O)O [3102.1075] (H-VQHNIKHSF-OH) | 0.2
CSCC[C@H](NC(=O)[C@H](CO)NC(=O)[C@H](CCCNC(=N)N)NC(=O)[C@@H]1CCCN1C(=O)[C@H](Cc1ccccc1)NC(=O)[C@H](CCCCN)NC(=O)[C@H](CO)NC(=O)[C@H](CCCCN)NC(=O)[C@H](C)N)C(=O)O [3102.1076] (H-AKSKFPRSM-OH) | 0.26
CC[C@H](C)[C@H](NC(=O)CNC(=O)[C@H](C)NC(=O)[C@H](Cc1ccc(O)cc1)NC(=O)[C@H](CCCCN)NC(=O)[C@@H](N)CO)C(=O)N[C@@H](CC(N)=O)C(=O)N[C@H](C(=O)N[C@@H](CC(C)C)C(=O)O)[C@@H](C)CC [3102.1077] (H-SKYAGINIL-OH) | 0.27
C[C@@H](O)[C@H](N)C(=O)N[C@@H](CCCCN)C(=O)N[C@@H](Cc1ccccc1)C(=O)N[C@H](C(=O)N[C@@H](CC(=O)O)C(=O)N[C@@H](Cc1ccccc1)C(=O)N[C@@H](CCC(N)=O)C(=O)N[C@@H](CC(=O)O)C(=O)N[C@@H](Cc1ccccc1)C(=O)O)[C@@H](C)O [3102.1078] (H-TKFTDFQDF-OH) | 2.2
CC[C@H](C)[C@H](NC(=O)[C@H](CC(N)=O)NC(=O)[C@H](CC(N)=O)NC(=O)[C@H](Cc1ccccc1)NC(=O)[C@@H]1CCCN1C(=O)[C@H](CCCCN)NC(=O)[C@H](CCCNC(=N)N)NC(=O)[C@H](CCC(N)=O)NC(=O)[C@@H](N)Cc1ccccc1)C(=O)O [3102.1079] (H-FQRKPFNNI-OH) | 8.9
CC[C@H](C)[C@H](NC(=O)[C@H](CCCCN)NC(=O)[C@@H](N)CCCNC(=N)N)C(=O)N[C@@H](CO)C(=O)N[C@@H](CO)C(=O)N[C@@H](CCCCN)C(=O)N[C@@H](CC(N)=O)C(=O)N[C@@H](CO)C(=O)N[C@@H](CCSC)C(=O)O [3102.1080] (H-RKISSKNSM-OH) | 0.11
CC[C@H](C)[C@H](NC(=O)[C@H](CO)NC(=O)[C@H](CCC(N)=O)NC(=O)[C@H](CCC(N)=O)NC(=O)[C@H](CC(C)C)NC(=O)[C@H](Cc1ccccc1)NC(=O)[C@H](CC(C)C)NC(=O)[C@@H](N)C(C)C)C(=O)N[C@@H](Cc1ccccc1)C(=O)O [3102.1081] (H-VLFLQQSIF-OH) | 0.61
CC[C@H](C)[C@H](NC(=O)[C@H](CO)NC(=O)[C@H](CO)NC(=O)[C@H](CCC(=O)O)NC(=O)[C@H](CC(N)=O)NC(=O)[C@H](Cc1ccccc1)NC(=O)[C@@H](NC(=O)[C@H](CCC(N)=O)NC(=O)[C@@H](N)Cc1ccccc1)C(C)C)C(=O)O [3102.1082] (H-FQVFNESSI-OH) | 5
CC(C)C[C@H](NC(=O)[C@H](CCCCN)NC(=O)[C@H](CC(N)=O)NC(=O)[C@@H](NC(=O)[C@H](Cc1ccccc1)NC(=O)[C@H](CS)NC(=O)[C@@H](NC(=O)[C@H](CCCCN)NC(=O)[C@@H](N)CCCCN)C(C)C)C(C)C)C(=O)O [3102.1086] (H-KKVCFVNKL-OH) | 4.5
CC(C)C[C@H](NC(=O)[C@H](C)NC(=O)[C@H](CCC(N)=O)NC(=O)[C@H](CCC(N)=O)NC(=O)[C@@H](NC(=O)[C@@H](N)Cc1ccccc1)[C@@H](C)O)C(=O)N[C@@H](CO)C(=O)N[C@@H](CO)C(=O)N[C@@H](Cc1ccccc1)C(=O)O [3102.1087] (H-FTQQALSSF-OH) | 6.4
CC[C@H](C)[C@H](NC(=O)[C@H](CC(C)C)NC(=O)[C@@H](NC(=O)[C@H](CO)NC(=O)[C@@H](NC(=O)[C@H](CCCCN)NC(=O)[C@H](C)N)[C@@H](C)O)[C@@H](C)O)C(=O)N[C@@H](Cc1ccccc1)C(=O)N[C@@H](Cc1ccccc1)C(=O)O [3102.1088] (H-AKTSTLIFF-OH) | 1.6
